Data taken from patent publication US12653914B2, “Compounds for fast and efficient click release” (priority 2019, dated 2026).
Where two headings read alike, the source gives them in different places. Where a SMILES comes first, the peptide text is derived from it. [ ]: non-standard residue; d: D form. The star is where a group is joined. Dolaproine = CO[C@@H]([C@@H]1CCCN1)[C@@H](C)C(=O)O; X1 = COC(=O)[C@]1(O)CC/C=C/[C@H](OC(=O)*)CC1; Dil = CC[C@H](C)[C@H](NC)[C@@H](CC(=O)O)OC; X2 = C[C@@H](N*)[C@@H](O)c1ccccc1; NMeV = CN[C@H](C(=O)O)C(C)C

Assays:
[1] = Second order rate constant, TCO derivatives with tetrazine 2.18, pseudo-first order, UV spectroscopy in MeCN; conditions: reaction with 2.18 in MeCN at 20° C.; estimated from k1′
Method: Second order rate constant for the reaction between TCO derivatives and tetrazine 2.18 was determined under pseudo-first order conditions in MeCN at 20° C. by UV spectroscopy. A cuvette was filled with MeCN (3 mL) and equilibrated at 20° C. A solution of 2.18 (20 μL, 25 mM in DMSO) was added, followed by a solution of the TCO (5 μL 25 mM in DMSO). The absorption at 540 nm was monitored. The pseudo-first order reaction constant k1′ was calculated from the half-life of the decrease of this absorption, and the second order rate constant k2 was estimated from k1′ and the initial concentration of tetrazine: k2=k1′/c.

[2] = Release of constructs (C^A) from TCO triggers with tetrazines, HPLC-MS/PDA; conditions: for Time point and release %: MeCN/PBS
Method: In another experiment, the release of TCO triggers was evaluated with a range of tetrazines. The constructs to be released included the drug doxorubicin, and methylamine as a model C^A. TCO-C^A conjugates (10 μL, 25 mM in DMSO) were diluted with MeCN ([…]) and PBS ([…]). Next, a solution of the tetrazine activator (20 μL 25 mM in DMSO) was added, and the release was evaluated by HPLC-MS/PDA. The results in Table 6 show complete C^A release in 5 min from all TCO triggers with all tested activators. Importantly, no release was observed from 1.42 and 1.62 upon reaction with 2.18, which supports Formula (19), wherein an amine being Y^T1, Y^T2 or Y^T3 cannot be bound to a carbonyl.

[3] = cited from earlier work
[4] = Release kinetics of 7-amino-4-methylcoumarin (AMC) in various media, fluorescence; conditions: 5 μM 1.14, 7 μM activator 2.18
Method: 1.14 was reacted in PBS, DMEM buffer, full cell growth medium (DMEM+10% FBS) or human plasma at a concentration of 5 μM with activator 2.18 (7 μM) in a quartz cuvette while magnetic stirring. The increase of fluorescence due to the release of 7-amino-4-methylcoumarin (AMC) was monitored using a Perkin Elmer LS55 fluorescence spectrometer. […] In contrast, with TCO triggers not of this invention, 2.18 gives low and slow release [Versteegen et al., Angew. Chem. Int. Ed. 2013, 52, 14112-14116, Sarris et al., Chem Eur J 2018, 24, 18075-18081].

[5] = system: HT-1080 cells (human fibrosarcoma); assay: Cell viability, MTT assay; assay type: cell-based; conditions: then 94 h, n=3
Method: HT-1080 cells (human fibrosarcoma) were added with serial dilutions of the TCO-MMAE prodrug 1.16 (100 μM-0.32 nM) in growth medium and 10 μL of a stock solution of activator 2.18 (50 μM in PBS) in a 96-well plate (n=3). After a 2 h incubation at 37° C., the medium was refreshed and the cells were incubated for 94 more hours.

[6] = Second order rate constants, TCO with tetrazine activators, stopped-flow spectrophotometry in PBS; conditions: PBS at 37° C., 25 μM tetrazine, 50 μM TCO
Method: Second order rate constants for the reaction of tetrazines activators with 1.13 and 1.71 were determined using a SX20 stopped-flow spectrophotometer from Applied Photophysics. Measurements were performed at 37° C. with 25 μM tetrazine and 50 μM TCO in PBS, in triplicates, monitored at 535 nm. Data was analyzed using GraphPad Prism. Second order rate constants were determined from nonlinear fitting of the absorbance vs. time curves to the second order rate equation. […] Importantly, 2.17 and 2.18 are very reactive, but afford low release yields with TCO triggers that are not part of this invention (i.e. 1.71) [Versteegen et al., Angew. Chem. Int. Ed. 2013, 52, 14112-14116].

[7] = Dye (AF594) release efficiency from TCO-C^A conjugates with tetrazine activators, HPLC endpoint; conditions: 25 μM TCO, 50 μM tetrazine, PBS 37° C., 48 h, n = 2, ±1%
Method: 1.15 and 1.72 (as control without an Y^T1 group) were reacted at a concentration of 25 μM with various tetrazine activators (50 μM) in PBS (DMSO content <1%) at 37° C. Samples were analyzed by HPLC (UV and fluorescence detection; 10-100% MeCN in water with 2.5 mM NH4OAc, pH 8.4) after 48 h to obtain endpoint data for the overall dye release efficiency (Table 5). […] Importantly, highly reactive tetrazines that normally give low release yields, now give quantitative release. Compare with [Versteegen et al., Angew. Chem. Int. Ed. 2013, 52, 14112-14116, Sarris et al., Chem Eur J 2018, 24, 18075-18081].

[8] = 5 min, tetrazine 2.18, released payload dimethylamine
[9] = 10 min, tetrazine 2.20, released payload doxorubicin

With CN(C)C(=O)O[C@@H]1/C=C/CCN(C(=O)OCC[Si](C)(C)C)CC1 (racemic) [Compound 1.62, 2-(Trimethylsilyl)ethyl (S,E)-4-((dimethylcarbamoyl)oxy)-3,4,7,8-tetrahydroazocine-1(2H)-carboxylate] the k2 [1] was 80 M⁻¹ s⁻¹ and the “release upon reaction with 2.18” value [2] was “no release”.
With CN(C)C(=O)O[C@@H]1/C=C/CCNCC1 (racemic) [Compound 1.63, (S,E)-1,2,3,4,7,8-Hexahydroazocin-4-yl dimethylcarbamate] the “Time point and release %” value [2, 8] was 5 min: 100%.
For CNC(=O)C[C@@H]1CC[C@H](OC(=O)N(C)C)/C=C/C[C@H]1O (relative stereo) [Compound 1.70, (rel-1S,5R,6S,E)-5-Hydroxy-6-(2-(methylamino)-2-oxoethyl)cyclooct-2-en-1-yl dimethylcarbamate], the “Time point and release %” value [2, 8] was 5 min: 100%.
With CN(C)C(=O)OC[C@H]1CC[C@H](OC(=O)N(C)C)/C=C/C[C@H]1N (stereo in doubt) [Compound 1.54, (1S,5R,6S,E)-5-Amino-6-(((dimethylcarbamoyl)oxy)methyl)cyclooct-2-en-1-yl dimethylcarbamate] the k2 [1] was 38 M⁻¹ s⁻¹ and the “Time point and release %” value [2, 8] was 5 min: 50%.
In the case of c1ccc(-c2nnc(-c3ccccn3)nn2)nc1 [3,6-bis-(2-pyridyl)-1,2,4,5-tetrazine], the click release yield ([3]; PBS/MeCN (3:1)) is listed as 7% and the click release yield ([3]; serum) is listed as 12%.
For Cc1nnc(C)nn1 [3,6-bis-methyl-1,2,4,5-tetrazine], the maximum release yield ([3]; release typically takes several hours) is given as 80-90%.
For COC(=O)[C@]1(O)CC/C=C/[C@H](OC(=O)Nc2ccc3c(C)cc(=O)oc3c2)CC1 [Compound 1.14, Methyl(1S,4E,6R)-1-hydroxy-6-{[(4-methyl-2-oxo-2H-chromen-7-yl)carbamoyl]oxy}cyclooct-4-ene-1-carboxylate], the “time to reach 100% AMC release” value ([4]; PBS and medium (neat or containing FBS)) was 1 to 3 min and the “time to complete AMC release” value ([4]; human plasma) was “approximately 20 min”.
Work on CC[C@H](C)[C@@H]([C@@H](CC(=O)N1CCC[C@H]1[C@H](OC)[C@@H](C)C(=O)N[C@H](C)[C@@H](O)c1ccccc1)OC)N(C)C(=O)[C@@H](NC(=O)[C@H](C(C)C)N(C)C(=O)O[C@H]1/C=C/CC[C@@](O)(C(=O)OC)CC1)C(C)C [Compound 1.16, TCO-MMAE] (X1-[NMeV]V[Dil][Dolaproine]-X2) yielded an IC50 ([5]; HT-1080, 1.16 alone (no activator), 2 h incubation) of 1300 nM and an IC50 ([5]; HT-1080, in the presence of activator 2.18, 2 h incubation) of 0.3 nM.
For COC(=O)[C@]1(O)CC/C=C/[C@H](OC(=O)N(C)c2ccc([C@@H](O)C(=O)O)cc2)CC1 [Compound 1.19, 2-Hydroxy-2-{4-[({[(1R,2E,6S)-6-hydroxy-6-(methoxycarbonyl)cyclooct-2-en-1-yl]oxy}carbonyl)(methyl)amino]phenyl}acetic acid], the k2 [1] was 134 M⁻¹ s⁻¹ and the “Time point and release %” value ([2]; 5 min, tetrazines 2.1, 2.3, 2.18 (for all tested activators), released payload 2-hydroxy-2-[4-(methylamino)phenyl]acetic acid) was 5 min: 100%.
With COC(=O)[C@H]1CC[C@@H](O)/C=C/C[C@@H]1NC(=O)OCC[Si](C)(C)C [Compound 1.40, Methyl (1S,2S,4E,6R)-6-hydroxy-2-({[2-(trimethylsilyl)ethoxy]carbonyl}amino)cyclooct-4-ene-1-carboxylate] the k2 [1] was 39 M⁻¹ s⁻¹.
With COC(=O)[C@H]1CC[C@@H](OC(=O)N(C)C)/C=C/C[C@@H]1NC(=O)OCC[Si](C)(C)C [Compound 1.42, Methyl (1S,2S,4E,6R)-6-((dimethylcarbamoyl)oxy)-2-(((2-(trimethylsilyl)ethoxy)carbonyl)amino)cyclooct-4-ene-1-carboxylate] the “release upon reaction with 2.18” value ([2]; tetrazine 2.18, amine bound to a carbonyl (protected)) was “no release”.
In the case of COC(=O)[C@H]1CC[C@@H](OC(=O)N(C)C)/C=C/C[C@@H]1N [Compound 1.43, Methyl (1S,2S,4E,6R)-2-amino-6-((dimethylcarbamoyl)oxy)cyclooct-4-ene-1-carboxylate], the k2 [1] is reported as 27 M⁻¹ s⁻¹ and the “Time point and release %” value ([2]; 5 min, tetrazines 2.1, 2.3, 2.15, 2.17, 2.18 (for all tested activators), released payload dimethylamine) is reported as 5 min: 100%.
In the case of COC(=O)[C@H]1CC[C@@H](OC(=O)N[C@H]2C[C@@H](OC3C[C@](O)(C(=O)CO)Cc4c(O)c5c(c(O)c43)C(=O)c3c(OC)cccc3C5=O)O[C@@H](C)[C@H]2O)/C=C/C[C@@H]1N (some centres unmarked) [Compound 1.45, TCO-doxorubicin], the “Time point and release %” value [2, 9] is reported as 10 min: 100%.
C[Si](C)(C)CCOC(=O)N[C@H]1C/C=C/[C@H](O)CC[C@H]1CO [Compound 1.51, 2-(trimethylsilyl)ethyl N-[(1S,3E,5R,8R)-5-hydroxy-8-(hydroxymethyl)cyclooct-3-en-1-yl]carbamate] showed a k2 [1] of 104 M⁻¹ s⁻¹.
C[Si](C)(C)CCOC(=O)N1CC/C=C/C(O)CC1 (centres unmarked) [Compound 1.60, 2-(Trimethylsilyl)ethyl (E)-4-hydroxy-3,4,7,8-tetrahydroazocine-1(2H)-carboxylate] gave a k2 [1] of 277 M⁻¹ s⁻¹.
In the case of COc1cccc2c1C(=O)c1c(O)c3c(c(O)c1C2=O)C[C@@](O)(C(=O)CO)C[C@@H]3O[C@@H]1C[C@H](NC(=O)O[C@@H]2/C=C/CCNCC2)[C@H](O)[C@H](C)O1 [Compound 1.65, TCO-doxorubicin], the “Time point and release %” value [2, 9] is reported as 10 min: 100%.
O=C(NCCOCCOCCOCCO)O[C@H]1/C=C/CCCCC1 [Compound 1.71, reference compound] showed a k2 ([6]; activator 2.12) of 280 ± 30 M⁻¹ s⁻¹, a k2 ([6]; activator 2.17) of 10300 ± 1200 M⁻¹ s⁻¹ and a k2 ([6]; activator 2.18) of 9300 ± 500 M⁻¹ s⁻¹. The k2 ([6]; activator 2.9) was 80 ± 10 M⁻¹ s⁻¹.
With TCO-PEG2-AF594 [Compound 1.15] the “Release (%) of fluorescent dye (AF594)” value ([7]; activator 2.10) was 99%, the “Release (%) of fluorescent dye (AF594)” value ([7]; activator 2.11) was 99% and the “Release (%) of fluorescent dye (AF594)” value ([7]; activator 2.12) was 92%. For the same compound, the “Release (%) of fluorescent dye (AF594)” value ([7]; activator 2.13) was 99%, the “Release (%) of fluorescent dye (AF594)” value ([7]; activator 2.14) was 99% and the “Release (%) of fluorescent dye (AF594)” value ([7]; activator 2.16) was 92%. The “Release (%) of fluorescent dye (AF594)” value ([7]; activator 2.17) was 96%, the “Release (%) of fluorescent dye (AF594)” value ([7]; activator 2.18) was 99% and the “Release (%) of fluorescent dye (AF594)” value ([7]; activator 2.19) was 99%. For the same compound, the “Release (%) of fluorescent dye (AF594)” value ([7]; activator 2.6) was 93% and the “Release (%) of fluorescent dye (AF594)” value ([7]; activator 2.9) was 98%.
